Measurements as given in US9296753B2, “Crystalline forms of a Bruton's tyrosine kinase inhibitor” (Pharmacyclics LLC, priority 2012, dated 2016).
Converted amounts (≈) assume the structure as drawn. Where two headings read alike, the source gives them in different places.

Columns and labels:
[1] = Thermodynamic aqueous solubility; format: physicochemical; settings: water, 25 °C, thermodynamic from solid
Protocol: The suspension was equilibrated at 25° C. for 24 hours then the pH was measured. The suspension was then filtered through a glass fibre C filter. The filtrate was then diluted by an appropriate factor e.g. 101. Quantitation was by HPLC with reference to a standard solution of approximately 0.25 mg/ml in DMSO. Different volumes of the standard, diluted and undiluted sample solutions were injected. The solubility was calculated using the peak areas determined by integration of the peak found at the same retention time as the principal peak in the standard injection.
Analysis was performed on an Agilent HP1100 series system equipped with a diode array detector and using ChemStation software vB.02.01-SR1.

[2] = for mass change (GVS): between 0-90% RH
Protocol: Sorption isotherms were obtained using a SMS DVS Intrinsic moisture sorption analyser, controlled by DVS Intrinsic Control software v1.0.0.30. The sample temperature was maintained at 25° C. by the instrument controls. The humidity was controlled by mixing streams of dry and wet nitrogen, with a total flow rate of 200 ml/min. […] The weight change, (mass relaxation) of the sample as a function of % RH was constantly monitored by the microbalance (accuracy±0.005 mg). Typically 5-20 mg of sample was placed in a tared mesh stainless steel basket under ambient conditions. The sample was loaded and unloaded at 40% RH and 25° C. (typical room conditions). A moisture sorption isotherm was performed as outlined below (2 scans giving 1 complete cycle). The standard isotherm was performed at 25° C. at 10% RH intervals over a 0-90% RH range. Data analysis was undertaken in Microsoft Excel using DVS Analysis Suite v6.0.0.7. The sample was recovered after completion of the isotherm and re-analysed by XRPD.

solubility at 24 h ([1]; pH 1.2, simulated gastric fluid, pH 1.2, 25° C., 24 hours, read-out: Conc. Found (solubility in aqueous solution))	solubility at 24 h ([1]; pH 1.64, simulated gastric fluid, pH 1.64, 25° C., 24 hours, read-out: Conc. Found (solubility in aqueous solution))	solubility at 24 h ([1]; pH 1.95, simulated gastric fluid, pH 1.95, 25° C., 24 hours, read-out: Conc. Found (solubility in aqueous solution))	solubility at 24 h ([1]; pH 3, aqueous buffer, pH 3, 25° C., 24 hours, read-out: Conc. Found (solubility in aqueous solution))	solubility at 24 h ([1]; pH 4, aqueous buffer, pH 4, 25° C., 24 hours, read-out: Conc. Found (solubility in aqueous solution))	solubility at 24 h ([1]; pH 5, aqueous buffer, pH 5, 25° C., 24 hours, read-out: Conc. Found (solubility in aqueous solution))	solubility at 24 h ([1]; pH 6, aqueous buffer, pH 6, 25° C., 24 hours, read-out: Conc. Found (solubility in aqueous solution))	solubility at 24 h ([1]; pH 8, aqueous buffer, pH 8, 25° C., 24 hours, read-out: Conc. Found (solubility in aqueous solution))	solubility at 24 h ([1]; pH 9, aqueous buffer, pH 9, 25° C., 24 hours, read-out: Conc. Found (solubility in aqueous solution))	solubility at 24 h ([1]; pH 10, aqueous buffer, pH 10, 25° C., 24 hours, read-out: Conc. Found (solubility in aqueous solution))	changes in the XRPD after GVS analysis [2]	mass change (GVS) ([2]; 25° C.)	solubility at 24 h ([1]; pH 7.42, water, pH of about 7.42, read-out: observed aqueous solubility)	solubility thermodynamic at 24 h ([1]; pH 7.42, water, pH of 7.42)	hysteresis (GVS) ([2]; 0-90% RH, 25° C.)	Compound
1300 µg/mL (≈ 2950 µM)	1070 µg/mL (≈ 2430 µM)	820 µg/mL (≈ 1860 µM)	100 µg/mL (≈ 227 µM)	22 µg/mL (≈ 49.9 µM)	17 µg/mL (≈ 38.6 µM)	15 µg/mL (≈ 34.1 µM)	~13 µg/mL (≈ 29.5 µM)	20 µg/mL (≈ 45.4 µM)	10 µg/mL (≈ 22.7 µM)	No significant changes	< 0.3 % w/w	–	–	–	C=CC(=O)N1CCC[C@@H](n2nc(-c3ccc(Oc4ccccc4)cc3)c3c(N)ncnc32)C1 [Form A, 1-((R)-3-(4-amino-3-(4-phenoxyphenyl)-1H-pyrazolo[3,4-d]pyrimidin-1-yl)piperidin-1-yl)prop-2-en-1-one]
–	–	–	–	–	–	–	–	–	–	No significant changes	2.3 % w/w	~9.6 µg/mL (≈ 21.8 µM)	9.6 µg/mL (≈ 21.8 µM)	No hysteresis	C=CC(=O)N1CCC[C@@H](n2nc(-c3ccc(Oc4ccccc4)cc3)c3c(N)ncnc32)C1 [Form B, 1-((R)-3-(4-amino-3-(4-phenoxyphenyl)-1H-pyrazolo[3,4-d]pyrimidin-1-yl)piperidin-1-yl)prop-2-en-1-one]
